Measurements as given in PubChem BioAssay (NCI).
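Five compound concentrations were applied to cells in 96-well plates for 48 hours; endpoints were derived by simple linear interpolation of the resulting dose-response curve. At the TGI there is no net growth.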

Legend:
Experiment in all cases: NCI tumour cell line growth inhibition, 48 h
[1] = tested on: CAKI-1 renal
[2] = tested on: SNB-75 CNS
[3] = tested on: UACC-257 melanoma
[4] = tested on: PC-3 prostate
[5] = tested on: BT-549 breast
[6] = tested on: NCI-H460 lung
[7] = tested on: HCT-116 colon
[8] = tested on: COLO 205 colon
[9] = tested on: LOX IMVI melanoma
[10] = tested on: A549 NSCLC
[11] = tested on: NCI-H23 lung
[12] = tested on: MDA-MB-231 breast
[13] = tested on: TK-10 renal
[14] = tested on: KM12 colon
[15] = tested on: 786-0 renal
[16] = tested on: SK-MEL-2 melanoma
[17] = tested on: HCC-2998 colon
[18] = tested on: MALME-3M melanoma
[19] = tested on: RXF 393 renal
[20] = tested on: SR leukemia

Measured: TGI

CCOC(=O)c1cc(=O)c2ccnc3c2n1CCS3
not listed: [17] | [18] | [19] | [20]
> 100 µM: all other assays above

CCCCCC(C/C=N/N(C)C)C(O)(C(F)(F)F)C(F)(F)F (stereo not drawn)
30.5 µM: [8]
97.4 µM: [2]
76.3 µM: [19]
70.6 µM: [12]
81.6 µM: [14]
67.1 µM: [18]
not listed: [3] | [5]
> 100 µM: all other assays above

N#C[C@@H](c1nc2ccccc2s1)c1ncccc1[N+](=O)[O-]
74.7 µM: [13]
26.9 µM: [5]
28.5 µM: [17]
> 62.9 µM: [14]
13.9 µM: [9]
8.8 µM: [8]
18.1 µM: [4] | [10]
17.2 µM: [15]
14 µM: [7]
16.1 µM: [11]
> 31.6 µM: [2] | [19] | [16]
> 100 µM: [1] | [3]
17.4 µM: [12]
14.2 µM: [6]

BrC1=CCC23CC=C(Br)[C@H]4CC2(COC3)C[C@@H]1O4 (stereo partly drawn)
41.6 µM: [2]
93.5 µM: [19]
not listed: [1] | [3] | [4] | [5] | [12] | [17]
> 100 µM: all other assays above

Cc1cc2c(cc1Cl)SC(NNC(=O)c1ccco1)=NS2(=O)=O
not listed: [20]
> 10 µM: all other assays above

COc1ccc(/C=C2\CCC(CNc3ccc(S(N)(=O)=O)cc3)C2=O)cc1 (stereo not drawn)
35.3 µM: [19]
76.2 µM: [2]
34.9 µM: [13]
33.9 µM: [5]
35.5 µM: [12]
31.3 µM: [14]
> 77.2 µM: [6]
34.4 µM: [8]
22.9 µM: [7]
19.3 µM: [1]
40.2 µM: [3]
23.8 µM: [9]
11.2 µM: [15]
> 100 µM: [10] | [17] | [16]
42.2 µM: [4]
36 µM: [18]
39.6 µM: [11]

C[C@]12CC[C@@H]3c4ccc(O)cc4CC[C@H]3[C@@H]1CC[C@@H]2OP(=O)(O)O
not listed: [20]
> 100 µM: all other assays above

COc1ccc(/C=C2\NC(=S)N(/C=C3\C(=O)Oc4ccccc4C3=O)C2=O)cc1OC
not listed: [18] | [20]
> 100 µM: all other assays above

CC(C)Oc1c(O)c2c3c(oc(=O)n3C=CC2c2ccccc2)c1OC(C)C (stereo not drawn)
> 100 µM: [3] | [7] | [9] | [12] | [15]
57.1 µM: [4]
67.7 µM: [1]
92.1 µM: [10]
35.3 µM: [17]
52.2 µM: [11]
40.1 µM: [16]
53.2 µM: [2]
35.1 µM: [6]
60.1 µM: [8]
89.6 µM: [14]
68.2 µM: [13]

O=c1[nH]nc(-c2ccccc2)n1Nc1ccccc1
not listed: [4] | [5]
> 100 µM: all other assays above

O=c1cc(-c2ccccc2)[nH]c2ccc(N3CCOCC3)cc12
38.1 µM: [15]
0.446 µM: [14]
> 89.2 µM: [1]
46.5 µM: [19]
not listed: [2] | [8] | [10] | [11] | [20]
> 100 µM: all other assays above

Cc1ccc(NCC(=O)N2CC(=O)Nc3ccccc32)c(C)c1
not listed: [4] | [5] | [12]
> 100 µM: all other assays above

O=C1/C(=c2\s/c(=C\c3ccccc3)c(=O)n2-c2ccccc2)SC(=S)N1c1ccccc1
57.1 µM: [12]
not listed: [5]
> 100 µM: all other assays above

NC(=O)Nc1ccc(S(=O)(=O)Nc2ccc(S(N)(=O)=O)cc2)cc1
not listed: [2] | [17] | [20]
> 100 µM: all other assays above

CCc1cc2c(c3c1CCC3=O)CC1(Cc3ccc(C)cc3C1)C2 (stereo not drawn)
40.8 µM: [10]
67.6 µM: [16]
91.7 µM: [4]
33.1 µM: [7]
not listed: [1] | [2] | [5] | [6] | [20]
> 100 µM: all other assays above

CCOC(=O)c1nnsc1NC(=O)Nc1ccc(Cc2ccc(NC(=O)Nc3snnc3C(=O)OCC)cc2)cc1
33.9 µM: [15]
70.5 µM: [19]
95.6 µM: [12]
not listed: [9] | [20]
> 100 µM: all other assays above

C=C[C@@]1(C)CC[C@@H]2[C@@]3(C1)O[C@H]3CC1[C@](C)(C(=O)OC)CCC[C@@]12C (stereo partly drawn)
36.8 µM: [15]
57.2 µM: [11]
58.1 µM: [12]
44.3 µM: [3]
35 µM: [18]
67.2 µM: [5]
31.3 µM: [6]
33 µM: [19]
31.8 µM: [8]
> 100 µM: [1] | [2] | [4] | [14]
41.4 µM: [16]
28.1 µM: [7]
51.7 µM: [13]
54.7 µM: [10]
31.6 µM: [17]

CN(C)c1ccc(/C=C/C(=O)CC(=O)/C=C/c2ccc(N(C)C)cc2)cc1
76.7 µM: [20]
not listed: [3] | [5] | [11]
> 100 µM: all other assays above

O=c1ccn2n1Cc1ccccc1C2
not listed: [2] | [5]
> 100 µM: all other assays above

CN1Cc2cc3cc4c(cc3nc2N(C)C1)OCCO4
not listed: [11] | [20]
> 100 µM: all other assays above

Cc1cc(-c2cccc3ccccc23)c(C#N)c(=S)n1C1OC(CO)C(O)C(O)C1O (stereo not drawn)
47.5 µM: [2]
not listed: [5]
> 100 µM: all other assays above

O=c1cc(-c2ccccc2)c2ccccc2[nH]1
90.2 µM: [1]
46.5 µM: [2]
90.9 µM: [18]
not listed: [4] | [5] | [12] | [17]
> 100 µM: all other assays above

O=C(O)c1n[nH][nH]c1=S
not listed: [5] | [13]
> 100 µM: all other assays above

CCCc1cc(=O)oc2c3c(c4c(c12)OC(C)(C)CC4)O[C@@H](C)[C@H](C)[C@H]3O
25 µM: [11]
49.7 µM: [1]
22.5 µM: [2]
28 µM: [18]
18.1 µM: [15]
17.7 µM: [3]
11.1 µM: [12]
27.1 µM: [19]
17.9 µM: [5]
30 µM: [9]
15.5 µM: [4]
28.3 µM: [17]
22.2 µM: [7]
28.6 µM: [8]
29.9 µM: [14] | [16]
24.2 µM: [6]
25.7 µM: [10]

OC1c2ccccc2CC12Cc1ccccc1C2 (stereo not drawn)
not listed: [5]
> 100 µM: all other assays above

[N-]=[N+]=NC(CCl)c1cn([C@H]2C[C@H](O)[C@@H](CO)O2)c(=O)[nH]c1=O (stereo partly drawn)
not listed: [3] | [4] | [5] | [12]
> 100 µM: all other assays above
